The values that follow come from article PMC12196251, “Synthesis of New DltA Inhibitors and Their Application as Adjuvant Antibiotics to Re-Sensitize Methicillin-Resistant Staphylococcus aureus” (Molecules, 2025).

The subject of experiment [1] is MRSA clinical isolates. The experiment can be described thus: MIC of imipenem against MRSA in absence or presence of DltA inhibitor. It is filed as cell-based, S. aureus. Conditions: in presence of 1 mM of the DltA inhibitor; for MIC: Staphylococcus aureus, MRSA. On the procedure:
(§1) All these compounds were also tested […] against MRSA clinical isolates. […] The minimum inhibitory concentrations (MICs) of imipenem (IPM) were next determined in the absence or presence of 1 mM of the different DltA inhibitors to evaluate their potential to re-sensitize MRSA to this β-lactam (Table 2). […] To clarify this hypothesis, quantification of D-alanyl ester of the MRSA cell wall was performed as previously described in the presence of inhibitors (Table 2). […] These new series represent a promising structure entry not reported yet for the inhibition of DltA and the re-sensitization of bacteria toward known antibiotics.
Colonies from BHI agar plates were suspended in saline solution (0.9% NaCl) and adjusted to an OD600 of 0.5. For growth kinetics determination, 96-well microplates (Starlab, Orsay, France) containing 200 μL of fresh BHI medium were inoculated with bacterial suspensions to an OD600 of 0.02 with a wide range of DltA inhibitors (from 0 to 2 mM). Plates were incubated at 37 °C with shaking (orbital amplitude of 3 mm) in a microplate reader (InfiniteM Nano, Tecan, Seoul, Republic of Korean). OD600nm was measured every 10 min for 24 h. Determination of MIC/MBC of antibiotics and bacterial survival assays were performed as previously described using BHI medium. The DltA inhibitor was diluted in pure water and added to the growth medium to a final concentration of 0, 0.1, 0.25, 0.5, 0.75, or 1 mM.

The test system of experiment [2] is D-alanyl ester of the MRSA cell wall. The experiment in a line: Quantification of D-alanyl ester in the bacterial cell wall. It is filed as cell-based, S. aureus. Conditions: inhibitor at 1 mM, value (spread). On the procedure: as §1
Ester-linked D-alanines were quantified as described previously, with the following modifications. Cultures were grown in 5 mL of BHI supplemented with DltA inhibitor to a final concentration of 0.05, 0.1, 0.25, 0.5, 0.75, or 1 mM for 16 h at 37 °C under shaking (120 rpm). Briefly, the quantification is based on the oxidation of a chromogen by H2O2 generated when free D-alanines are oxidized by a D-amino acid oxidase. Three independent experiments with duplicate samples were performed.

Experiment [3] deals with T1, recombinant DltA from E. faecalis (Enterococcus faecalis, UniProt Q830N0).
T1 construct: made in house; host or cells: E. coli
T1 sequence (Q830N0 1-506): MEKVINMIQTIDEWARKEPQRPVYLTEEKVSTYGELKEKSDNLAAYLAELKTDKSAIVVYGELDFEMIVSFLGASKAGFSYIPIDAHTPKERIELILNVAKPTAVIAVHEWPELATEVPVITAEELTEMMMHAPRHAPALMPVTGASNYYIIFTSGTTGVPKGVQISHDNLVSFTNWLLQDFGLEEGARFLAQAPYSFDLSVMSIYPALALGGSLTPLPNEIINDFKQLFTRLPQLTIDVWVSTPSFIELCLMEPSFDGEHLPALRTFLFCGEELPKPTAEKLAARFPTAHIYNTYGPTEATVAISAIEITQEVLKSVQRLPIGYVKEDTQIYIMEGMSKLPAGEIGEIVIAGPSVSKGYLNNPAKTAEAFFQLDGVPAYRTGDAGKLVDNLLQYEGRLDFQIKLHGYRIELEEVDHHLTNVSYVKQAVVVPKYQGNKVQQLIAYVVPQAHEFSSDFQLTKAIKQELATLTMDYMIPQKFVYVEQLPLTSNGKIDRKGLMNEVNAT
More on the design: method as in doi:10.1002/ejoc.202300258. Conditions: previous reported work; cited from earlier work.

For experiment [4], the target named is T1, recombinant DltA from E. faecalis. The experiment in a line: DltA enzyme inhibition, PPi release coupled-enzyme assay. It counts as biochemical. On the procedure:
(§2) All new compounds were then evaluated in vitro for enzyme inhibition against recombinant DltA from E. faecalis or S. epidermis. Half-maximal inhibitory concentrations (IC50) were then determined by measuring the amount of PPi released at different inhibitor concentrations (Table 2). […] We noticed the DltA enzyme tolerated the presence of various modifications on the 2′-position, but the activity was inversely related to the size of the introduced group. […] Despite a good predicted binding affinity (−8.7 Kcal/mol), we hypothesize that the lower activity could be explained by the fact that the squaramide nitrogen atom might not be under its anionic form, as is the case with sulfamate 1.
(§3) The DltA-catalyzed ATP-hydrolysis reaction was monitored in vitro via PPi release (DltA +D-alanine +ATP → DltA-DAla-AMP +PPi) using a coupled-enzyme assay. The purified DltA was pretreated with DltC purified from E. coli to clear D-Ala-AMP already present in the enzyme preparation after expression in E. coli. Holo-DltC is the natural protein partner of DltA, and DltC purified from E. coli BL21 (DE3) contained 51% of this active form of DltC as determined by HPLC analysis. DltA was pretreated with DltC (ratio 1:1.2), incubated for 30 min at 37 °C and 30 min at 4 °C. Three successive washes were realized on Amicon Ultra-2 Centrifugal Filter Unit—Ultracel 30 membrane 30 kDa MWCO (Merck, Darmstadt, Germany) with elution buffer EB at 4 °C. The components of the coupled enzyme assay included 1.5 μM pre-treated DltA, 20 μM of ATP, and 14 μM of D-alanine. The half-maximal inhibitory concentration (IC50) of potential DltA inhibitors was determined by the addition of different concentrations of the synthesized molecules. PPi release was determined using the PiPer—Pyrophosphate assay kit (Invitrogen, Waltham, MA, USA) according to the recommendation of the supplier. Reactions were carried out in 96-well Chimney Style, non-binding Microplates with μClear Film Bottom (Greiner Bio-one, Frickenhausen, Germany). Plates were incubated at 37 °C for 5 h and read in a FlexStation 3 Multi-Mode plate reader (Molecular Devices, Silicon Valley, CA, USA), with λ excitation of 530 nm and λ emission of 590 nm. Experiments were conducted in sextuplicate, and the IC50 was determined by linear regression of the curve.

Experiment [5] concerns the target T2, recombinant DltA from S. epidermidis (Staphylococcus epidermidis, UniProt Q5HQN0).
T2 construct: made in house; host or cells: E. coli
T2 sequence (Q5HQN0 1-485): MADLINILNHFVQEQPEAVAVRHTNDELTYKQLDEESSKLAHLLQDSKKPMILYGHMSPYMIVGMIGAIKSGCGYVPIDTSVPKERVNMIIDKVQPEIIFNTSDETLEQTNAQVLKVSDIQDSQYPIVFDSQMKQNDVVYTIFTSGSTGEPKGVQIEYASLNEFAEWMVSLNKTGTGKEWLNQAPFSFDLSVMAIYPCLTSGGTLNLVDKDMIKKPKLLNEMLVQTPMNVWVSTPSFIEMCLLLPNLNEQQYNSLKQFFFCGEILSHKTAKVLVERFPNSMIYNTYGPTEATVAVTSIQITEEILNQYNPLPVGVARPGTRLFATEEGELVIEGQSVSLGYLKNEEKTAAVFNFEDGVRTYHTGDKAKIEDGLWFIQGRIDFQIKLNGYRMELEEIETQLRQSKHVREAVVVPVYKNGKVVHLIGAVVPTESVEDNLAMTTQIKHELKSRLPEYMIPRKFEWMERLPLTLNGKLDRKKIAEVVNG
The description is as above. It is filed as biochemical. How it is done:
as §2, §3

In experiment [6] the test system is MRSA clinical isolates. More on the design: method as in PMID 31339997, PMID 34450626, PMID 40116514. The note with it: S. aureus (MRSA); in presence of inhibitor 1; previously reported; cited from earlier work.
For a further experiment, the target named is DltA. On the set-up: method as in PMID 15955059. Conditions: DltA inhibitor; cited from earlier work.
The mark [7] stands for this setting: read-out: MIC of IPM, S. aureus (MRSA).
[8] abbreviates: S. aureus (MRSA), read-out: MIC of IPM.

pIC50, pKi: −log10 of the molar value. Several values for one entry are separate records, joined by “and”; a condition that tells them apart may be missing. Identical values can stand only once. Counter-ions that a name gives are not always drawn. Like-named read-outs stand apart in the source and are kept apart here.

For the compound `C[C@@H](N)C(=O)c1cn(C/C(CO)=C(\F)Cn2cnc3c(N)ncnc32)nn1` [Compound 39], the MIC with MRSA clinical isolates [1] (setting [7]) amounted to 16 µg/mL. For the same compound, the “Reduction in D-Ala Ester Residues” value in experiment [2] amounted to 0%. Also, in experiment [3], the pIC50 is 5.13.
Regarding `C[C@@H](N)C(=O)c1cn(C[C@H]2O[C@@H](n3cnc4c(N)ncnc43)[C@H](O)[C@@H]2O)nn1` [Compound 40], the MIC in the experiment on MRSA clinical isolates [1] (setting [7]) came to 8 µg/mL. The pIC50 in experiment [3] is 5.35.
On to `C[C@@H](N)C(=O)NS(=O)(=O)OC[C@H]1O[C@@H](n2cnc3c(N)ncnc32)[C@H](F)[C@@H]1O` [Compound 8, ((2R,3R,4R,5R)-5-(6-amino-9H-purin-9-yl)-4-fluoro-3-hydroxytetrahydrofuran-2-yl)methyl (D-alanyl)sulfamate salt], for which, in experiment [4], the pIC50 was 5.59. Further, in the experiment with MRSA clinical isolates [1] (setting [8]), the MIC was determined as 16 µg/mL. For the same compound, the “Reduction in D-Ala Ester Residues” value in experiment [2] stood at 0%.
`C[C@@H](N)C(=O)NS(=O)(=O)OC[C@H]1O[C@@H](n2cnc3c(N)ncnc32)[C@H](O)[C@@H]1O` [Compound 1, reference compound]: the figures for the pIC50 in experiment [4] and in experiment [5] were 5.64 and 5.62, respectively. Further, the “Reduction in D-Ala Ester Residues” value in experiment [2] was 86.7% and 86.7 (10.5) %. Besides, in the experiment on MRSA clinical isolates [6], the “MIC of IPM” value is 0.25 µg/mL. Further, at DltA, the pKi is 6.70.
For `CC(N)C(=O)NS(=O)(=O)NCC1OC(n2cnc3c(N)ncnc32)C(O)C1O` [Compound 30, (R)-2-amino-N-(N-(((2R,3S,4R,5R)-5-(6-amino-9H-purin-9-yl)-3,4-dihydroxytetrahydrofuran-2-yl)methyl)sulfamoyl)propenamide salt], the negative-log IC50 (pIC50) in experiment [4] was 5.74; in experiment [5], 5.70. In addition, the minimal inhibitory concentration (MIC) in the experiment on MRSA clinical isolates [1] (setting [8]) was 1 µg/mL. Further, the “Reduction in D-Ala Ester Residues” value in experiment [2] was 80.9% and 80.9 (18.4) %.
For the compound `C[C@@H](N)C(=O)c1cn(C[C@H]2O[C@@H](n3cnc4c(N)ncnc43)[C@H](F)[C@@H]2O)nn1` [Compound 50, (R)-2-amino-1-(1-(((2R,3R,4R,5R)-5-(6-amino-9H-purin-9-yl)-4-fluoro-3-hydroxytetrahydrofuran-2-yl)methyl)-1H-1,2,3-triazol-4-yl)propan-1-one salt], the pIC50 in experiment [4] is 4.83. Besides, the “MIC of IPM” value in the experiment on MRSA clinical isolates [1] (S. aureus (MRSA)) was 32 µg/mL. In the experiment on MRSA clinical isolates [1] (setting [7]), the minimal inhibitory concentration (MIC) lay within 16 to 64 µg/mL. Besides, in experiment [2], the “Reduction in D-Ala Ester Residues” value is reported as 8.6 (1.1) %.
Take `CC(N)C(=O)NS(=O)(=O)NCC1OC(n2cnc3c(N)ncnc32)C(F)C1O` [Compound 31, (R)-2-amino-N-(N-(((2R,3R,4R,5R)-5-(6-amino-9H-purin-9-yl)-4-fluoro-3-hydroxytetrahydrofuran-2-yl)methyl)sulfamoyl)propenamide salt]: the pIC50 in experiment [4] is 5.49. Besides, in the experiment with MRSA clinical isolates [1] (setting [8]), the minimum inhibitory concentration (MIC) came out at 32 µg/mL. Moreover, the “Reduction in D-Ala Ester Residues” value in experiment [2] amounted to 0%.
